“And” between values parts separate entries of the source, which are not always exact repeats. Identical values can stand only once. Counter-ions that a name gives are not always drawn.
Molecular target: Intestinal-type alkaline phosphatase (Homo sapiens, UniProt P09923)
Assay: inhibition of intestinal alkaline phosphatase – biochemical, luminescence, dose response (AID 1017)

Sequence of Intestinal-type alkaline phosphatase (P09923 whole entry, looked up): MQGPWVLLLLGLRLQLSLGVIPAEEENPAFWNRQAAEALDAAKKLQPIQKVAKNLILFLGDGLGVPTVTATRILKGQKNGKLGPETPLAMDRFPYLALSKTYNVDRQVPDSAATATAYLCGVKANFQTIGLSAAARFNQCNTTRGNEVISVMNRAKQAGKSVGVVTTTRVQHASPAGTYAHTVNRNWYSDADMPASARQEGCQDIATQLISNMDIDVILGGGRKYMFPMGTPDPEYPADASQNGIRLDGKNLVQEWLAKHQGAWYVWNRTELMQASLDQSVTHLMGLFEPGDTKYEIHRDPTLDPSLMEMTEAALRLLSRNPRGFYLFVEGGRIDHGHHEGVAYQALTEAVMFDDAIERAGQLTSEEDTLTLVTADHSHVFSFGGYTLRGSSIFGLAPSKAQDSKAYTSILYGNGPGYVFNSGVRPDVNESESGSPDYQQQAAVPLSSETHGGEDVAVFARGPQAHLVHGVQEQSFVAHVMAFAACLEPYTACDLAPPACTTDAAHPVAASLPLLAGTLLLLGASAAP

Row | IC50 | IC50 (inactive by the depositor's call) | SMILES
1 | > 10 µM |  | O=C1c2c(Cl)c(Cl)c(Cl)c(Cl)c2C(=O)N1c1nnc[nH]1 [4,5,6,7-tetrachloro-2-(1H-1,2,4-triazol-5-yl)isoindole-1,3-dione]
2 | > 100 µM |  | COc1ccc(C)cc1S(=O)(=O)Nc1ccc2ccccc2c1 [2-methoxy-5-methyl-N-(2-naphthalenyl)benzenesulfonamide]
3 | > 100 µM |  | O=C1c2ccccc2C(=O)N1c1nncs1 [2-(1,3,4-thiadiazol-2-yl)isoindole-1,3-dione]
4 | > 100 µM |  | COc1cc(C)c(Cl)cc1S(=O)(=O)Nc1cccnc1 [5-chloro-2-methoxy-4-methyl-N-(pyridin-3-yl)benzenesulfonamide]
5 | > 100 µM |  | COC(=O)c1cc(-c2ccc(OC)cc2)[nH]n1 [MLS-0091975.0001]
6 | > 100 µM |  | COc1ccc(C)cc1S(=O)(=O)Nc1cccnc1 [2-Methoxy-5-methyl-N-(pyridin-3-yl)benzenesulfonamide]
7 | 1.27 µM |  | CCc1nnc(SCC(=O)c2ccc(O)c(O)c2)[nH]1 [MLS-0315685.0001]
8 | > 100 µM |  | COC(=O)c1cc(-c2ccc3ccccc3c2)[nH]n1 [MLS-0111546.0001]
9 | 43.4 µM |  | O=C(O)c1cc(-c2ccccc2Cl)n[nH]1 [3-(2-chlorophenyl)-1H-pyrazole-5-carboxylic acid]
10 | > 100 µM |  | Cn1nc(C(=O)O)cc1-c1ccc(F)cc1 [5-(4-fluorophenyl)-1-methyl-3-pyrazolecarboxylic acid]
11 | 14.8 µM |  | O=C(Cn1cnc2ccccc21)c1ccc(O)c(O)c1 [2-(1-benzimidazolyl)-1-(3,4-dihydroxyphenyl)ethanone;hydrochloride]
12 | > 100 µM |  | CCOc1ccc(Cl)cc1S(=O)(=O)Nc1cccnc1 [5-chloro-2-ethoxy-N-(pyridin-3-yl)benzenesulfonamide]
13 | > 100 µM |  | O=C1c2ccccc2C(=O)N1c1nnc[nH]1 [2-(1H-1,2,4-triazol-5-yl)isoindole-1,3-dione]
14 | 9.95 µM |  | O=C1Nc2ccccc2C1C=NCCc1ccc(O)c(O)c1 (configuration not stated) [(3E)-3-[[2-(3,4-dihydroxyphenyl)ethylamino]methylene]oxindole]
15 | > 100 µM |  | Cn1nc(-c2ccc(F)cc2)cc1C(=O)O [5-(4-fluorophenyl)-2-methyl-3-pyrazolecarboxylic acid]
16 | > 100 µM |  | COc1ccc(C)cc1S(=O)(=O)Nc1cnc2ccccc2c1 [2-Methoxy-5-methyl-N-(quinolin-3-yl)benzenesulfonamide]
17 | > 100 µM |  | CCn1c(CSc2nc3ccccc3s2)nnc1SCC(=O)c1ccc(O)c(O)c1 [2-[[5-(1,3-benzothiazol-2-ylsulfanylmethyl)-4-ethyl-1,2,4-triazol-3-yl]sulfanyl]-1-(3,4-dihydroxyphenyl)ethanone]
18 | > 100 µM |  | Oc1cc(-c2cccc3ccccc23)[nH]n1 [MLS-0067141.0001]
19 | > 100 µM |  | COc1ccc2c(c1OC)C(=O)N(c1nnc(SC)[nH]1)C2=O [MLS-0146265.0001]
20 | > 100 µM |  | Cc1cc(C)nc(SCC(=O)c2ccc(O)cc2)n1 [2-(4,6-dimethylpyrimidin-2-ylthio)-1-(4-hydroxyphenyl)ethanone]
21 | > 100 µM |  | O=C(c1[nH]nc2c1COc1ccccc1-2)N1CCCC1 [(2,4-dihydrochromeno[4,3-c]pyrazol-3-yl)(pyrrolidin-1-yl)methanone]
22 | > 100 µM |  | COc1ccc(C(=O)CSc2nc(C)cc(C)n2)cc1 [2-(4,6-dimethylpyrimidin-2-ylthio)-1-(4-methoxyphenyl)ethanone]
23 | 0.11 µM and 0.157 µM |  | Oc1c2c(c(O)n1-c1nnc(-c3ccccc3)[nH]1)CC=CC2 [2-(5-Phenyl-2H-[1,2,4]triazol-3-yl)-3a,4,7,7a-tetrahydro-isoindole-1,3-dione]
24 | 0.539 µM and 0.922 µM |  | Oc1c2c(c(O)n1-c1nnc(Cc3ccccc3)[nH]1)CC=CC2 [MLS000100008]
25 | > 100 µM |  | Cc1cc(=O)oc2n[nH]c(-c3ccccc3)c12 [MLS-0013971.0001]
26 | > 100 µM |  | CCOC(=O)c1cc(-c2ccc(Cl)cc2)n[nH]1 [MLS-0111582.0001]
27 | > 100 µM |  | COC(=O)c1cc(-c2ccccc2)n[nH]1 [methyl 3-phenyl-1H-pyrazole-5-carboxylate]
28 | > 100 µM |  | O=C1c2c(Cl)c(Cl)c(Cl)c(Cl)c2C(=O)N1c1nc(Cc2ccccc2)n[nH]1 [MLS-0146263.0001]

The remaining lines, values behind:

Row | SMILES | IC50 | IC50 (inactive by the depositor's call)
29 | O=C(O)c1ccc2c(c1)C(=O)N(c1nc(-c3cccnc3)n[nH]1)C2=O [1,3-dioxo-2-(5-pyridin-3-yl-1H-1,2,4-triazol-3-yl)isoindole-5-carboxylic acid] | 40.7 µM | 
30 | COC(=O)c1cc(-c2ccc(Br)cc2)n[nH]1 | > 100 µM | 
31 | Cc1nc2ccccc2n1CC(=O)c1ccc(O)c(O)c1 [1-(3,4-dihydroxyphenyl)-2-(2-methyl-1-benzimidazolyl)ethanone;hydrochloride] | > 100 µM | 
32 | CCOC(=O)c1cc(-c2ccc3c(c2)OCCO3)n[nH]1 | > 100 µM | 
33 | O=C(CSc1nnc(-c2ccccc2Cl)[nH]1)c1ccc(O)c(O)c1 [1-[3,4-bis(oxidanyl)phenyl]-2-[[5-(2-chlorophenyl)-1H-1,2,4-triazol-3-yl]sulfanyl]ethanone] | > 100 µM | 
34 | Cc1ccc(-n2nnnc2SCC(=O)c2ccc(O)c(O)c2)cc1 [1-(3,4-dihydroxyphenyl)-2-[1-(4-methylphenyl)tetrazol-5-yl]sulfanylethanone] | 3.36 µM | 
35 | CCn1c(SCC(=O)c2ccc(O)c(O)c2)nnc1-c1ccccc1 [1-(3,4-Dihydroxy-phenyl)-2-(4-ethyl-5-phenyl-4H-[1,2,4]triazol-3-ylsulfanyl)-ethanone] |  | 32.8 µM
36 | C=CCn1c(SCC(=O)c2ccc(O)c(O)c2)nnc1-c1ccccc1OC [1-(3,4-dihydroxyphenyl)-2-[[5-(2-methoxyphenyl)-4-prop-2-enyl-1,2,4-triazol-3-yl]sulfanyl]ethanone] | > 6.25 µM and 20.7 µM | 
37 | O=C(CSc1nnc(-c2ccccc2)[nH]1)c1ccc(O)cc1O [1-[2,4-bis(oxidanyl)phenyl]-2-[(5-phenyl-1H-1,2,4-triazol-3-yl)sulfanyl]ethanone] | > 100 µM | 
38 | O=C(CSc1nnc(-c2ccccc2)[nH]1)c1ccc(O)c(O)c1 | 5.32 µM | 
39 | O=C1c2ccccc2C(=O)C1c1nc2ccccc2[nH]1 | > 100 µM | 
40 | COC(=O)c1cc(-c2ccc(C)cc2C)n[nH]1 | > 100 µM | 
41 | COC(=O)c1cc(-c2ccc(Cl)cc2Cl)n[nH]1 | > 100 µM | 
42 | CCc1nccn1CC(=O)c1ccc(O)c(O)c1 [1-(3,4-dihydroxyphenyl)-2-(2-ethyl-1-imidazolyl)ethanone;hydrochloride] | > 100 µM | 
43 | O=C1c2c(Cl)c(Cl)c(Cl)c(Cl)c2C(=O)N1c1nnc(CCc2ccccc2)[nH]1 | > 100 µM | 
44 | O=C(CNc1ccncc1)c1ccc(O)c(O)c1 [1-(3,4-dihydroxyphenyl)-2-(4-pyridylamino)ethanone] | > 100 µM | 
45 | C=CCn1c(SCC(=O)c2ccc(O)c(O)c2)nnc1-c1cccnc1 [1-(3,4-dihydroxyphenyl)-2-[(4-prop-2-enyl-5-pyridin-3-yl-1,2,4-triazol-3-yl)sulfanyl]ethanone] | 40.4 µM | 
46 | COc1ccc(-n2nnnc2SCC(=O)c2ccc(O)c(O)c2)cc1 [1-(3,4-dihydroxyphenyl)-2-(1-(4-methoxyphenyl)-1H-tetrazol-5-ylthio)ethanone] | 4.35 µM | 
47 | COc1ccc(OC)c(S(=O)(=O)Nc2cnc3ccccc3c2)c1 | > 100 µM | 
48 | COc1ccccc1-c1nc(SCC(=O)c2ccc(O)c(O)c2)n[nH]1 [1-(3,4-dihydroxyphenyl)-2-[[5-(2-methoxyphenyl)-1H-1,2,4-triazol-3-yl]sulfanyl]ethanone] | > 3.13 µM | 
49 | Cn1c(SCC(=O)c2ccc(O)c(O)c2)nnc1-c1ccccc1 [1-(3,4-dihydroxyphenyl)-2-(4-methyl-5-phenyl-4H-1,2,4-triazol-3-ylthio)ethanone] | > 100 µM | 
50 | COc1ccc(-c2[nH]nc3oc(=O)cc(C)c23)cc1 | > 100 µM | 
51 | Cc1cc(C)nc(SCC(=O)c2ccc(O)c(O)c2)n1 [1-(3,4-dihydroxyphenyl)-2-(4,6-dimethylpyrimidin-2-ylthio)ethanone] | 49.5 µM | 
52 | C=CCn1c(SCC(=O)c2ccc(O)c(O)c2)nnc1-c1ccccc1 [1-(3,4-dihydroxyphenyl)-2-[(5-phenyl-4-prop-2-enyl-1,2,4-triazol-3-yl)sulfanyl]ethanone] | 10.1 µM | 
53 | C=CCn1c(SCC(=O)c2ccc(O)c(O)c2)nnc1-c1cccc(OC)c1 [1-(3,4-dihydroxyphenyl)-2-[[5-(3-methoxyphenyl)-4-prop-2-enyl-1,2,4-triazol-3-yl]sulfanyl]ethanone] | 13.1 µM | 
54 | Cc1cnn(CC(=O)c2ccc(O)c(O)c2)c1 [1-(3,4-dihydroxyphenyl)-2-(4-methyl-1H-pyrazol-1-yl)ethanone] | 53.3 µM | 
55 | O=C(Cn1ccnc1)c1ccc(O)c(O)c1 [1-(3,4-dihydroxyphenyl)-2-(1-imidazolyl)ethanone;hydrochloride] | 30.2 µM and 18.5 µM | 
56 | CCCCOc1ccc(-c2cc(C(=O)OC)[nH]n2)cc1 [methyl 3-(4-butoxyphenyl)-1H-pyrazole-5-carboxylate] | > 100 µM | 
57 | COc1ccc(OC)c(S(=O)(=O)Nc2cccnc2)c1 [2,5-Dimethoxy-N-(pyridin-3-yl)benzenesulfonamide] | > 100 µM | 
